The NIST ThermoML archive (doi:10.1021/je900503p)
“And” between values parts separate entries of the source, which are not always exact repeats. Equal values may be shown once. ± gives the expanded uncertainty stated by the source.

Columns and labels:
[1] = relative permittivity at zero frequency (dimensionless); settings: 101 kPa, Liquid, Dekameter
[2] = 101 kPa, Liquid
[3] = refractive index (Na D-line) (dimensionless); settings: 101.33 kPa, Liquid

SMILES | relative permittivity at zero frequency ([1]; 293.15 K) | relative permittivity at zero frequency ([1]; 298.15 K) | relative permittivity at zero frequency ([1]; 303.15 K) | relative permittivity at zero frequency ([1]; 313.15 K) | mass density ([2]; 293.15 K) | mass density ([2]; 298.15 K) | mass density ([2]; 303.15 K) | mass density ([2]; 313.15 K) | refractive index ([3]; 293.15 K) | refractive index ([3]; 298.15 K) | refractive index ([3]; 303.15 K) | refractive index ([3]; 313.15 K)
CCC(C)O (stereo unspecified) [butan-2-ol] | 17.51 ± 0.06 | 16.58 ± 0.06 | 15.75 ± 0.06 | 14.44 ± 0.06 | 805.54 ± 0.46 kg/m3 | 802.06 ± 0.47 kg/m3 | 798.45 ± 0.47 kg/m3 | 790.07 ± 0.48 kg/m3 | 1.3992 ± 0.0012 | 1.3954 ± 0.0012 | 1.3948 ± 0.0012 | 1.391 ± 0.0012
CCCCO [butan-1-ol] | 18.26 ± 0.06 | 17.54 ± 0.06 | 16.89 ± 0.06 | 15.45 ± 0.06 | 809.52 ± 0.43 kg/m3 | 805.58 ± 0.43 kg/m3 | 801.92 ± 0.44 kg/m3 | 794.26 ± 0.45 kg/m3 | 1.3992 ± 0.0012 | 1.3972 ± 0.0012 | 1.3963 ± 0.0012 | 1.392 ± 0.0012
O=C1CCCO1 [γ-butyrolactone] | 42.34 ± 0.06 and 42.81 ± 0.06 | 41.64 ± 0.06 | 41.1 ± 0.06 | 39.92 ± 0.06 | 1128.79 ± 0.58 kg/m3 | 1123.75 ± 0.57 kg/m3 | 1118.79 ± 0.56 kg/m3 | 1121.76 ± 0.56 kg/m3 and 1108.88 ± 0.54 kg/m3 | 1.437 ± 0.0013 | 1.4356 ± 0.0013 | 1.4334 ± 0.0013 | 1.429 ± 0.0013
